In patent US20220387403A1, “COMPOUNDS, COMPOSITIONS AND METHODS FOR TREATING NASH, NAFLD, AND OBESITY” (CVI Pharmaceuticals Limited, priority 2019, published 2022):
Where two headings read alike, the source gives them in different places. Each block holds one compound with its values, some of them ahead of it.

What was measured:
[1] = tested on: LDLR mRNA; assay: LDLR mRNA expression in HepG2 cells, quantitative real-time RT-PCR; assay type: cell-based, human; details: 24 hours; for Activity on LDLR mRNA expression (Fold of control): dose less than or equal to 10 μM; for Activity on LDLR mRNA at 10 uM (fold of control) / Activity on LDLR mRNA at 40 uM (fold of control): mean ± s.d.
Experimental: Activities of some compounds of Formulas I, II, III, and IV on LDLR mRNA expression were determined. HepG2 cells were treated with new compounds individually at a dose less than or equal to 10 μM for 24 hours. Total RNA was harvested for quantitative real-time RT-PCR analysis using the method described in Example 16B. […] In these experiments, berberine chloride was included for comparison. […]
Total RNA was harvested for quantitative real-time RT-PCR analysis using method described in Examples 16B.
The effects of 23 compounds on the mRNA expressions of LDLR and PCSK9 were examined using quantitative real-time RT-PCR assays. HepG2 cells were treated with various compounds at 10 and 40 uM concentrations for 24 hours. Total RNA was isolated and 2 μg was used to generate cDNA in a reaction containing random primers and M-MLV at 37° C. for 1 h in a volume of 25 μl. Real-time PCR was performed on the cDNA using MCEP REALPLEX 2 SYSTEM (Eppendorf) and Universal MasterMix (Applied Biosystems). Human LDLR, PCSK9, and GAPDH Pre-Developed TaqMan Assay Reagents (Applied Biosystems) were used to assess the levels of mRNA expressions in HepG2. The levels of LDLR and PCSK9 mRNA were normalized to that of GAPDH. Each RNA samples was assayed in duplicate. The fold activity was calculated by dividing mRNA abundance in compound treated cells with that of control.

[2] = tested on: HepG2 cells; assay: DiI-LDL uptake (LDLR ligand uptake activity) in HepG2 cells; assay type: cell-based, human; details: for Activity on DiI-LDL uptake: A, compound dose ≤ 10 μM, 20 hours
Experimental: HepG2 cells (2×10^5 cells/well) in 24-well culture plates were treated with various compounds at indicated concentrations for 20 hours. The fluorescent 1.1′-dioctadecyl-3,3,3′,3′-tetramethylindocarbocyanin perchlorate (DiI-LDL) (Biomedical Technologies, Stoughton, Mass.) at a concentration of 2 μg/mL was added to cells at the end of treatment. After 4 hours, the medium was removed, cells were washed with cold PBS, and were examined immediately under a fluorescent microscope (Nikon) at 200× amplification. The fluorescent intensity in compound-treated cells was compared to that in untreated control cells. […] In these experiments berberine chloride was used for comparison.
The combined beneficial effects of these novel compounds on elevation of LDLR mRNA levels likely through the mechanism of mRNA stabilization and their inhibitory activity towards PCSK9, the secreted protease that degrades LDLR protein, result in strong increases in LDL ligand uptake activity through increased receptor surface abundance. […] Briefly, HepG2 cells (2×10^5 cells/well) in 24-well culture plates were treated with various compounds at 10 and 40 uM concentrations for 20 hours. The fluorescent 1. 1′-dioctadecyl-3,3,3′, 3′-tetramethylindocarbocyanin perchlorate (DiI-LDL) (Biomedical Technologies, Stoughton, Mass.) at a concentration of 2 μg/ml was added to cells at the end of treatment. After 4 hours, the medium was removed; cells were washed with cold PBS, and were examined immediately under a fluorescent microscope (Nikon) at 200× amplification. The fluorescent intensity in compound-treated cells was compared to that in untreated control cells. […]

[3] = tested on: hyperlipidemic rabbits; details: rabbit, in vivo
[4] = tested on: hyperlipidemic rabbits; assay: Lipid lowering effects and blood chemistry in hyperlipidemic rabbits; details: for serum total cholesterol level: in mM
[5] = tested on: NAFLD hamster model; assay: High fat and high cholesterol diet induced NAFLD hamster model; assay type: in vivo; details: C128 10, 20 and 40 mg/kg; fenofibrate 50 mg/kg; 4 weeks
Experimental: In a high fat and high cholesterol diet (HFHCD) induced non-alcoholic fat liver disease (NAFLD) hamster model, hamsters were fed a HFHCD for two weeks then treated for 4 weeks with C128 at 10 mg/kg, 20 mg/kg and 40 mg/kg, along with fenofibrate at 50 mg/kg as a positive control. Serum lipids and liver enzymes were measured using standard techniques. Liver tissue histopathology with Oil-red O staining and H&E staining were also performed.
In a high fat and high cholesterol diet (HFHCD) induced NAFLD hamster model, hamsters were fed a HFHCD for two weeks then treated for 4 weeks with C127 at 80 mg/kg or with fenofibrate 50 mg/kg.

[6] = 10 uM, 20 hours (first symbol of the cell)
[7] = 40 uM, 20 hours (second symbol of the cell)
[8] = after 14 days of drug treatment, mean, n = 6
[9] = treatment day 0 (before the drug treatment), mean ± SD, n = 6
[10] = treatment day 4, 128(+)/128(−) 30 mg/kg, SMV/ATV 3 mg/kg once a day oral gavage
[11] = treatment day 7, 128(+)/128(−) 30 mg/kg, SMV/ATV 3 mg/kg once a day oral gavage
[12] = treatment day 10, from day 7 128(+)/128(−) 60 mg/kg, SMV/ATV 10 mg/kg
[13] = treatment day 14, from day 7 128(+)/128(−) 60 mg/kg, SMV/ATV 10 mg/kg

Compound: COc1ccc2c(c1OC(=O)N(C)C)CN1CCc3cc4c(cc3C1C2)OCO4 (stereo not drawn) [Compound 43, (10-methoxy(5,6,7,8,13,13a-hexahydro-2H-1,3-dioxolano[4,5-g]isoquinolino[3,2-a]isoquinolin-9-yloxy))-N,N-dimethylcarboxamide]
Activity on LDLR mRNA expression (Fold of control) [1]: 1.95 ± 0.18 Fold of control | Activity on DiI-LDL uptake [2]: ++

Compound: COc1cc2c(cc1OC)C1C(C)c3ccc(OC)c(OS(=O)(=O)c4ccccc4)c3CN1CC2 (stereo not drawn) [Compound 139, 2,3,10-Trimethoxy-13-methyl-5,6,7,8,13,13a-hexahydro-isoquinolino[2,1-b]isoquinolin-9-yl benzensulfonate]
Activity on LDLR mRNA at 10 uM (fold of control) [1]: 11.5 ± 1.29 fold of control | Activity on LDLR mRNA at 40 uM (fold of control) [1]: 3.02 ± 0.34 fold of control

Compound: CCOC(=O)Oc1c(OC)ccc2c1CN1CCc3cc4c(cc3C1C2)OCO4 (stereo not drawn) [Compound 48, 10-methoxy-5,6,7,8,13,13a-hexahydro-2H-1,3-dioxolano[4,5-g]isoquinolino[3,2-a]isoquinolin-9-yl ethoxyformate]
Activity on LDLR mRNA expression (Fold of control) [1]: 1.45 ± 0.15 Fold of control

Compound: COc1ccc2c(c1)CCN1Cc3c(cccc3OS(=O)(=O)c3cccc(F)c3)CC21 (stereo not drawn) [Compound 150, 3-methoxy-5,6,7,8,13,13a-hexahydroisoquinolino[2,1-b]isoquinolin-9-yl 3-fluorobenzenesulfonate]
Activity in LDL uptake (relative to control) [2, 6]: +/+ | Activity in LDL uptake (relative to control) [2, 7]: +/+

Compound: CCC(C)(C)C(=O)O[C@H]1C[C@@H](C)C=C2C=C[C@H](C)[C@H](CC[C@@H]3C[C@@H](O)CC(=O)O3)[C@H]21 [SMV, simvastatin, reference compound]
CK [3]: 6492.8 U/L | GLU [3]: 7.9 mmol/L | ALP [4, 8]: 288.7 IU/L | CREA [4, 8]: 242.2 µmol/L | HDL-C [4, 8]: 2.9 mmol/L | LDH [4, 8]: 530.3 IU/L | LDL-C [4, 8]: 23.3 mmol/L | TC [4, 8]: 26.2 mmol/L | TG [4, 8]: 1.7 mmol/L | serum total cholesterol level [4, 9]: 28.8 ± 7.4 | serum total cholesterol level [4, 10]: 24.8 ± 6.1 | serum total cholesterol level [4, 11]: 26.1 ± 4.4 | serum total cholesterol level [4, 12]: 25.4 ± 6.1 | serum total cholesterol level [4, 13]: 26.2 ± 5.5

Compound: COc1ccc2c(c1OC(=O)Nc1ccccc1)CN1CCc3cc4c(cc3C1C2)OCO4 (stereo not drawn) [Compound 61, (10-methoxy(5,6,7,8,13,13a-hexahydro-2H-1,3-dioxolano[4,5-g]isoquinolino[3,2-a]isoquinolin-9-yloxy))-N-benzamide]
Activity on LDLR mRNA expression (Fold of control) [1]: 1.33 ± 0.53 Fold of control

ALP [3]: 333.5 IU/L | CK [3]: 7270.0 U/L | CREA [3]: 238.2 µmol/L | GLU [3]: 6.7 mmol/L | LDH [3]: 675.0 IU/L
Compound: CC(C)c1c(C(=O)Nc2ccccc2)c(-c2ccccc2)c(-c2ccc(F)cc2)n1CC[C@@H](O)C[C@@H](O)CC(=O)O [ATV, atorvastatin, reference compound]
ALT [3]: 795.6 IU/L | AST [3]: 767.0 IU/L | HDL-C [4, 8]: 3.6 mmol/L | LDL-C [4, 8]: 29.6 mmol/L | TC [4, 8]: 33.9 mmol/L | TG [4, 8]: 1.7 mmol/L | serum total cholesterol level [4, 9]: 28.9 ± 6.0 | serum total cholesterol level [4, 10]: 26.5 ± 5.2 | serum total cholesterol level [4, 11]: 31.5 ± 4.9 | serum total cholesterol level [4, 12]: 32.5 ± 4.5 | serum total cholesterol level [4, 13]: 33.9 ± 6.5

Compound: COc1ccc2c(c1OS(=O)(=O)c1ccccc1)CN1CCc3cc4c(cc3C1C2)OCCO4 (stereo not drawn) [Compound 116, 11-Methoxy-6,7,8,9,14,14a-hexahydro-2H,3H-1,4-dioxano[5,6-g]isoquinolino[3,2-a]isoquinolin-10-yl benzenesulfonate]
Activity in LDL uptake (relative to control) [2, 6]: +++/+++ | Activity in LDL uptake (relative to control) [2, 7]: +++/+++

Compound: COc1ccc2c(c1OC(=O)Nc1cccc(C)c1)CN1CCc3cc4c(cc3C1C2)OCO4 (stereo not drawn) [Compound 46, (10-methoxy(5,6,7,8,13,13a-hexahydro-2H-1,3-dioxolano[4,5-g]isoquinolino[3,2-a]isoquinolin-9-yloxy))-N-(3-methylphenyl)carboxamide]
Activity on LDLR mRNA expression (Fold of control) [1]: 1.80 ± 0.16 Fold of control | Activity on DiI-LDL uptake [2]: ++

Compound: COc1ccc2c(c1)CCN1Cc3c(ccc(OC)c3OS(=O)(=O)c3ccccc3)CC21 (stereo not drawn) [Compound 115, 3,10-Dimethoxy-5,6,7,8,13,13a-hexahydroisoquinolino[2,1-b]isoquinolin-9-yl benzenesulfonate]
Activity on LDLR mRNA at 40 uM (fold of control) [1]: 2.65 ± 0.06 fold of control | Activity in LDL uptake (relative to control) [2, 7]: +++

Compound: CC(C)OC(=O)C(C)(C)Oc1ccc(C(=O)c2ccc(Cl)cc2)cc1 [fenofibrate, reference compound]
Body and liver weights [5]: elevated by a statistically significant amount

Compound: COc1ccc2c(c1OS(=O)(=O)c1ccccc1)CN1CCc3cc(C)ccc3C1C2 (stereo not drawn) [Compound 121, 10-Methoxy-3-methyl-5,6,7,8,13,13a-hexahydroisoquinolino[2,1-b]isoquinolin-9-yl benzenesulfonate]
Activity on LDLR mRNA at 10 uM (fold of control) [1]: 3.56 ± 0.03 fold of control | Activity on LDLR mRNA at 40 uM (fold of control) [1]: 3.43 ± 0.81 fold of control

Compound: COc1cc(NC(=O)Oc2c(OC)ccc3c2CN2CCc4cc5c(cc4C2C3)OCO5)cc(OC)c1 (stereo not drawn) [Compound 45]
Activity on LDLR mRNA expression (Fold of control) [1]: 2.09 ± 0.11 Fold of control | Activity on DiI-LDL uptake [2]: ++

Compound: CN1CCc2cc3c(cc2[C@H]1[C@@H]1O[C@H](O)c2c1ccc1c2OCO1)OCO3 [d-(+)-EGN, (+)-egenine]
Activity on DiI-LDL uptake [2]: +

Compound: COc1ccc2c(c1O)CN1CCc3cc4c(cc3C1C2)OCO4 (stereo not drawn) [Compound 34, 10-methoxy-5,6,7,8,13,13a-hexahydro-2H-1,3-dioxolano[4,5-g]isoquinolino[3,2-a]isoqunolin-9-ol]
Activity on LDLR mRNA expression (Fold of control) [1]: 1.76 ± 0.17 Fold of control | Activity on DiI-LDL uptake [2]: ++

Compound: COc1ccc2c(c1)CCN1Cc3c(ccc(OC)c3OS(=O)(=O)c3ccccc3)C(C)C21 (stereo not drawn) [Compound 140, 3,10-Dimethoxy-13-methyl-5,6,7,8,13,13a-hexahydro-isoquinolino[2,1-b]isoquinolin-9-yl benzenesulfonate]
Activity on LDLR mRNA at 10 uM (fold of control) [1]: 6.65 ± 0.68 fold of control

Compound: COc1ccc2c(c1OC(=O)Nc1ccc(OC(F)(F)F)cc1)CN1CCc3cc4c(cc3C1C2)OCO4 (stereo not drawn) [Compound 44, (10-methoxy(5,6,7,8,13,13a-hexahydro-2H-1,3-dioxolano[4,5-g]isoquinolino[3,2-a]isoquinolin-9-yloxy))-N-[4-(trifluoromethoxy)phenyl]carbox-amide]
Activity on LDLR mRNA expression (Fold of control) [1]: 2.20 ± 0.06 Fold of control | Activity on DiI-LDL uptake [2]: ++

Compound: COc1ccc2c(c1OC(=O)NC(C)C)CN1CCc3cc4c(cc3C1C2)OCO4 (stereo not drawn) [Compound 41, (10-methoxy(5,6,7,8,13,13a-hexahydro-2H-1,3-dioxolano[4,5-g]isoquinolino[3,2-a]isoquinolin-9-yloxy))-N-(methylethyl)carboxamide]
Activity on LDLR mRNA expression (Fold of control) [1]: 1.60 ± 0.03 Fold of control | Activity on DiI-LDL uptake [2]: ++
